Structures can show the parent of a compound that is named as a salt.

This test addresses T1, human FXa (Homo sapiens, UniProt P00742).
T1 construct: purchased Cosmobio ERL HFXa-1011
The test can be described thus: Determination of FXa-inhibiting effect (IC50 value), chromogenic substrate S2222. The test is classed as biochemical. The conditions noted are these: 0.05 U/ml human FXa, substrate S2222, absorbance at 405 nm, room temperature, pH 7.4 buffer.

T1 sequence (P00742 235-488 limits assumed): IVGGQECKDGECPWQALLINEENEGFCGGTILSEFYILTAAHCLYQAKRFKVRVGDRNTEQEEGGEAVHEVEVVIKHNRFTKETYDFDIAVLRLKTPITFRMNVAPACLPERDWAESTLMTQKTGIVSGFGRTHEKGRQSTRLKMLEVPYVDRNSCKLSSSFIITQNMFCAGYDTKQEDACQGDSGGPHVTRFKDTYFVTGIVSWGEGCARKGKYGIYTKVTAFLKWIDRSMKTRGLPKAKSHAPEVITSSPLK
T1 sequence (P00742 41-179 partner limits assumed): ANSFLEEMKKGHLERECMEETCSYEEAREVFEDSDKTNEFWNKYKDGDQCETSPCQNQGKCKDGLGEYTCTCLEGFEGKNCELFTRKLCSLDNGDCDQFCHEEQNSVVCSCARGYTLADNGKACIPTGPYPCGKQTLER

Consider `CN1CCc2nc(C(=O)N[C@@H]3CCC[C@H]3NC(=O)c3cc4cc(Cl)ccc4[nH]3)sc2C1` (racemic) [Example 3, (±)-trans-N^1-[(5-Chloroindol-2-yl)carbonyl]-N^2-[(5-methyl-4,5,6,7-tetrahydrothiazolo[5,4-c]pyridin-2-yl)carbonyl]-1,2-cyclopentanediamine hydrochloride], for which inhibition was half-maximal at 86 nM (IC50).
With `CN1CCc2nc(C(=O)N[C@@H]3CCCC[C@@H]3NC(=O)c3ccc4cc(Cl)ccc4c3)sc2C1` (racemic) [Example 10, (±)-cis-N^1-[(6-Chloronaphthalen-2-yl)carbonyl]-N^2-[(5-methyl-4,5,6,7-tetrahydrothiazolo[5,4-c]pyridin-2-yl)-carbonyl]-1,2-cyclohexanediamine hydrochloride], the midpoint of inhibition, the IC50, lay at 83 nM.
With `CN1CCc2nc(C(=O)N[C@@H]3CCCC[C@@H]3NC(=O)c3cc4cc(Br)ccc4[nH]3)sc2C1` (racemic) [Example 15, (±)-cis-N^1-[(5-Bromoindol-2-yl)carbonyl]-N^2-[(5-methyl-4,5,6,7-tetrahydrothiazolo[5,4-c]pyridin-2-yl)carbonyl]-1,2-cyclohexanediamine hydrochloride], the IC50 came out at 92 nM.
In turn, `CN1Cc2nc(C(=O)N[C@@H]3CCCC[C@@H]3NC(=O)c3cc4cc(Cl)ccc4[nH]3)sc2C1` (racemic) [Example 41, (±)-cis-N^1-[(5-Chloroindol-2-yl)carbonyl]-N^2-[(5-methyl-4,6-dihydro-5H-pyrrolo[3,4-d]thiazol-2-yl)carbonyl]-1,2-cyclohexanediamine hydrochloride] registered a 50% inhibitory concentration (IC50) of 36 nM. This IC50 lies about 2.6-fold lower than the previous one.
The molecule `CC(C)N1CCc2nc(C(=O)N[C@@H]3CC(CO)C[C@H]3NC(=O)c3cc4cc(Cl)ccc4[nH]3)sc2C1` (single isomer, unassigned; stereoisomer b) [Example 68, (1R*,2R*)-N^1-[(5-Chloroindol-2-yl)carbonyl]-4-hydroxymethyl-N^2-[(5-isopropyl-4,5,6,7-tetrahydro-thiazolo[5,4-c]pyridin-2-yl)carbonyl]-1,2-cyclopentanediamine hydrochloride (Stereoisomer B)] had an IC50 of 4.1 nM.
Take `CC(C)(CO)N1CCc2nc(C(=O)N[C@@H]3CC(CO)C[C@H]3NC(=O)c3cc4cc(Cl)ccc4[nH]3)sc2C1` (single isomer, unassigned; stereoisomer b) [Example 70, (1R*,2R*)-N^1-[(5-Chloroindol-2-yl)carbonyl]-N^2-[5-(1-dimethyl-2-hydroxyethyl)-4,5,6,7-tetrahydrothiazolo-[5,4-c]pyridin-2-yl)carbonyl]-4-hydroxymethyl-1,2-cyclopentanediamine hydrochloride (Stereoisomer B)]: the 50% inhibitory concentration (IC50) turned out to be 2.7 nM.
The same measure for `CN1CCc2nc(C(=O)N[C@@H]3C[C@@H](CO)CC[C@H]3NC(=O)c3cc4cc(Cl)ccc4[nH]3)sc2C1` [Example 176, (1R,2R,4S)—N^1-[(5-Chloroindol-2-yl)carbonyl]-4-hydroxymethyl-N^2-[(5-methyl-4,5,6,7-tetrahydrothiazolo[5,4-c]pyridin-2-yl)carbonyl]-1,2-cyclohexanediamine]: 3.3 nM.
The same measure for “(±)-cis-N^1(or N^2)-[(5-Chloroindol-2-yl)carbonyl]-4,4-(1,2-ethylenedioxy)-N^2(or N^1)-[(5-methyl-4,5,6,7-tetrahydrothiazolo[5,4-c]pyridin-2-yl)carbonyl]-1,2-cyclohexanediamine [Example 167]”: 1.4 nM.

As a reminder, the IC50 is the concentration needed to halve the response being measured. A low value points to greater potency.

For the origin of these results see patent US7935824B2, “Ethylenediamine derivatives” (Daiichi Pharmaceutical Co., Ltd., priority 2000, dated 2011).
